Target: T1, CIC-1 ion channel (Rattus norvegicus, UniProt P35524)
T1 construct: CIC-1 channels in native tissue of rat skeletal muscle fibres; from tissue; host or cells: whole soleus muscle of 12-14 week old Wistar rats
T1 sequence (P35524 1-994): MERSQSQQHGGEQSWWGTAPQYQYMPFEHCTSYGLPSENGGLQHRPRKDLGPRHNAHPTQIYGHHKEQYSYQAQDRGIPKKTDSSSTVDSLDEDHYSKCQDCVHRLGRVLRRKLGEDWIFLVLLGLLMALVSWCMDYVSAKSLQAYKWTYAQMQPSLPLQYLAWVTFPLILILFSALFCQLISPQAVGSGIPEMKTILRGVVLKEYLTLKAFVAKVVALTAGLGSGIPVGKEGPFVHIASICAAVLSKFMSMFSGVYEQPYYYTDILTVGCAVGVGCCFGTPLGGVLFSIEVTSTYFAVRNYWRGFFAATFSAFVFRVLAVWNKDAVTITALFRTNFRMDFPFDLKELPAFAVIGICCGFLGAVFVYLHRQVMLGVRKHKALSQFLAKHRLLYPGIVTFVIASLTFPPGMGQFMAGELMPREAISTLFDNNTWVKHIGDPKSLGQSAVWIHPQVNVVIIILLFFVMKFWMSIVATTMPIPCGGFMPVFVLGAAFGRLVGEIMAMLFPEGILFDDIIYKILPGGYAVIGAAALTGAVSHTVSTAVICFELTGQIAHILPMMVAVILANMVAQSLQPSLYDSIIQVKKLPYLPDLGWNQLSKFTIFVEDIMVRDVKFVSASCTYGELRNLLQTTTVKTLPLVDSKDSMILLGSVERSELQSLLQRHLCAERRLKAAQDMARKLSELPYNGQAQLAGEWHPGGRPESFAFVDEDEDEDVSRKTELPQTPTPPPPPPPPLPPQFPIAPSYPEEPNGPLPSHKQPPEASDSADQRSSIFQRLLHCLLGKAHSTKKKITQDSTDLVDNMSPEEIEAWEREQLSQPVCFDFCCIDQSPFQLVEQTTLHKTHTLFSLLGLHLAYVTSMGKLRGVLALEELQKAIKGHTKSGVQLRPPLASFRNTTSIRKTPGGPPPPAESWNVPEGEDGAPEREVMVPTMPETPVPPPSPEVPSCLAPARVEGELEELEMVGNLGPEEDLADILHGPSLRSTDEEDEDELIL
Experiment: Electrophysiological measurement (Gm, three micro-electrodes) of compound inhibition of CIC-1 in rat soleus muscle fibres
Format: cell-based
Details: approx. 30° C., four increasing compound concentrations, read-out: EC50 (inhibition of CIC-1 ion channel, reduction of Gm)
From the text: FIG. 1. […] Please note that the drawing illustrates only the impaled fibre although it is part of an intact muscle that contains many such fibres. All electrodes recorded the membrane potential of the fibre and the two peripheral electrodes were used to inject current (−30 nA, 50 ms). The electrodes were inserted with known inter-electrode distances (X1, X2 and X3). After insertion, current was passed first via the V1 electrode and then via the V3 electrode. The resulting deflections in the membrane voltage were measured by the other electrodes. The steady state deflections in membrane potential were measured and divided by the magnitude of the injected current (−30 nA) to obtain transfer resistances. These were next plotted against inter-electrode distances, and fitted to an exponential function (Panel B), from which Gm could be calculated using linear cable theory. The approach described in panel A and B, was repeated for several muscle fibres in the muscle during exposure at increasing concentrations of compound E-8, with approx. 10 fibres at each concentration. Average Gm at each concentration was plotted as a function of compound concentration in panel C, and fitted to a 4-parameter sigmoidal function from which the EC50 value for the compound was obtained (dashed line)
Apparent CIC-1 affinity was reported by the concentration of compound at which 50% of the compound's full inhibition of CIC-1 was observed (EC50).
CIC-1 Cl^− ion channels generate around 80% of the total membrane conductance (Gm) in resting skeletal muscle fibres of most animals including rat and human (Bretag, A H. Muscle chloride channels. Physiological Reviews, 1987, 67, 618-724). […] CIC-1 inhibition would in such recordings be reflected by a reduction of Gm.
Experimentally, Gm was measured in individual fibres of whole rat soleus muscles using a three micro-electrodes technique described in this example and in full detail elsewhere (Riisager et al., Determination of cable parameters in skeletal muscle fibres during repetitive firing of action potentials. Journal of Physiology, 2014, 592, 4417-4429). Briefly, intact rat soleus muscles were dissected out from 12-14 week old Wistar rats and placed in an experimental chamber that was perfused with a standard Krebs Ringer solution containing 122 mM NaCl, 25 mM NaHCO3, 2.8 mM KCl, 1.2 mM KH2PO4, 1.2 mM MgSO4, 1.3 mM CaCl2, 5.0 mM D-glucose. During experiments, the solution was kept at approx. 30° C. and continuously equilibrated with a mixture of 95% O2 and 5% CO2, pH˜7.4. The experimental chamber was placed in Nikon upright microscope that was used to visualize individual muscle fibres and the three electrodes (glass pipettes filled with 2 M potassium citrate). For Gm measurements, the electrodes were inserted into the same fibre with known inter-electrode distances of 0.35-0.5 mm (V1-V2, X1) and 1.1-1.5 mm (V1-V3, X3) (FIG. 1A). The membrane potential of the impaled muscle fibre was recorded by all electrodes. Two of the electrodes were furthermore used to inject 50 ms current pulses of −30 nA. […] The steady state voltage deflection at each distance was divided by the magnitude of current injected (−30 nA) and the resulting transfer resistances were plotted against inter-electrode distance and the data was fitted to a mono-exponential function from which Gm could be calculated using linear cable theory (FIG. 1B).
To establish a dose response relationship, Gm was first determined in 10 muscle fibres in the absence of compound and then at four increasing compound concentrations with Gm determinations in 5-10 fibres at each concentration. The average Gm values at each concentration were plotted against compound concentration and the data was fitted to sigmoidal function to obtain an EC50 value (FIG. 1C).

SMILES	EC50
C[C@H](Oc1ccc(Cl)cc1)C(=O)NOC1CCC1 [Compound C-80, (2S)-2-(4-chlorophenoxy)-N-cyclobutoxypropanamide]	2.6 µM
C[C@H](Oc1ccc(Br)cc1F)c1nn[nH]n1 [Compound E-8, 5-[(1S)-1-(4-bromo-2-fluorophenoxy)ethyl]-2H-1,2,3,4-tetrazole]	6.6 µM

Source: patent US20220274938A1, “5-[(1S)-1-(4-BROMOPHENOXY)ETHYL]-2H-TETRAZOLE DERIVATIVES AND RELATED COMPOUNDS AS CLC-1 ION CHANNEL INHIBITORS FOR TREATING NEUROMUSCULAR DISORDERS” (NMD PHARMA A/S, priority 2019, published 2022)
